Data on one compound can be found in PMC9847679, “The anti-breast cancer stem cell properties of gold(I)-non-steroidal anti-inflammatory drug complexes” (Chemical Science, 2022).

For orientation: IC50 means the concentration that gives 50% inhibition. Read a high IC50 as a need for much substance.

SMILES strings stand for the structures.

One data set concerns MDA-MB-468 cells. Nature of the data set: Monolayer cytotoxicity (MTT assay), MDA-MB-468 cells. The format is cell-based, human. As to conditions: 72 h incubation. An excerpt:
Cell Lines and Cell Culture Conditions. The human mammary epithelial HMLER and HMLER-shEcad cell lines were kindly donated by Prof. R. A. Weinberg (Whitehead Institute, MIT). The human epithelial breast MCF10A, breast adenocarcinoma MDA-MB-231 and MDA-MB-468, murine epithelial breast 4T1, and embryonic kidney HEK 293 cell lines were acquired from American Type Culture Collection (ATCC, Manassas, VA, USA).
HMLER, HMLER-shEcad, and MCF10A cells were maintained in Mammary Epithelial Cell Growth Medium (MEGM) with supplements and growth factors (BPE, hydrocortisone, hEGF, insulin, and gentamicin/amphotericin-B). MDA-MB-231, MDA-MB-468, 4T1, and HEK 293 cells were maintained in Dulbecco's Modified Eagle's Medium (DMEM) supplemented with fetal bovine serum (10 %) and penicillin/streptomycin (1 %). The cells were grown at 310 K in a humidified atmosphere containing 5% CO2.
Monolayer Cytotoxicity Studies. Exponentially growing cells were seeded at a density of approximately 5 × 10^3 cells per well in 96-well flat-bottomed microplates and allowed to attach for 24 h prior to addition of compounds. Various concentrations of the test compounds (0.0004-100 μM) were added and incubated for 72 h at 37 °C (total volume 200 μl). Stock solutions of the compounds were prepared as 10 mM DMSO solutions and diluted using cell […]
media. The final concentration of DMSO in each well was ≤1 %. After 72 h, 20 μl of MTT (4 mg mL-1 in PBS) was added to each well and the plates incubated for an additional 4 h at 37 °C. The media/MTT mixture was eliminated and DMSO (100 μl per well) was added to dissolve the formazan precipitates. The optical density was measured at 550 nm using a 96-well multiscanner autoreader. Absorbance values were normalised to (DMSO-containing) control wells and plotted as concentration of test compound versus % cell viability. IC50 values were interpolated from the resulting dose dependent curves. The reported IC50 values are the average of three independent experiments (n = 18). […]
Cellular Uptake. […]
On the technique in general: Tetrazolium dyes change colour on reduction, which living cells bring about.

Data set [1] is described as follows: Water-octanol partition coefficient (shake-flask, UV-vis). The format is physicochemical. As to conditions: room temperature 24 h. The protocol:
Measurement of water-octanol partition coefficient (LogP). The LogP values for 1-8 were determined using the shake-flask method and UV-vis spectroscopy. The 1-octanol used in this experiment was pre-saturated with water. An aqueous solution of 1-8 (500 μL, 100 μM) was incubated with 1-octanol (500 μL) in a 1.5 mL tube. The tube was shaken at room temperature for 24 h. The two phases were separated by centrifugation and the 1-8 content in each phase was determined by UV-vis spectroscopy. […]

A further data set relates to HMLER-shEcad cells. Kind of data set: FITC Annexin V-propidium iodide assay. The format is cell-based, human. As to conditions: IC50 value ×2, 48 h. The protocol:
Annexin V-Propidium Iodide Assay. HMLER-shEcad cells were incubated with and […]
harvested from adherent cultures by trypsinisation. The FITC Annexin V/Dead Cell Apoptosis Kit was used. The manufacture’s (Thermo Fisher Scientific) protocol was followed to carry out this experiment.
1× Annexin binding buffer (100 µL) (10 mM HEPES, 140 mM NaCl, 2.5 mM CaCl2, pH 7.4), then 5 µL FITC Annexin V and 1 µL PI (100 µg/ mL) were added to each sample and incubated at room temperature for 15 min. After which more 1× Annexin binding buffer (400 µL) was added while gently mixing. The cells were analysed using a FACSCanto II flow cytometer (BD Biosciences) (10,000 events per sample were acquired) at the University of Leicester FACS Facility. The FL1 channel was used to assess Annexin V binding and the FL2 channel was used to assess PI uptake. Cell populations were analysed using the FlowJo […]
ice-cold methanol (for 30 min), and suspended in PBS (200 μL). […]
(§1) COX-2 Inhibition Enzyme Immunoassay (EIA). […]
(§2) (ovine) Inhibitor Screening Assay (Cayman Chemicals).” The assay was performed according to the manuf acturer’s instructions using a 96-well plate set up.

A further data set concerns COX-2. Nature of the data set: COX-2 expression assay (flow cytometry). The format is cell-based, human. As to conditions: LPS 2.5 μM 24 h pre-treatment; 1 at IC50 value or indomethacin 20 μM, 48 h. The protocol: COX-2 Expression Assay. HMLER-shEcad cells were seeded in 6-well plates (at a density […]
indomethacin (20 μM) and incubated for a further 48 h. The cells were then harvested by trypsinisation, fixed with 4% paraformaldehyde (at 37 °C for 10 min), permeabilised with ice-cold methanol (for 30 min), and suspended in PBS (200 μL). […]
labelled anti-COX-2 antibody (5 μL) was then added to the cell suspension and incubated in the dark for 1 h. The cells were then washed with PBS (1 mL) and analysed using a FACSCanto II flow cytometer (BD Biosciences) (10,000 events per sample were acquired) at the University of Leicester FACS Facility. The FL1 channel was used to assess COX-2 expression. Cell populations were analysed using the FlowJo software (Tree Star).
as §1, §2
(In flow cytometry, cells or beads pass a laser one at a time.)

In the data set on MDA-MB-468 cells, `COc1ccc2c(c1)c(CC(=O)[O][Au][PH](c1ccccc1)(c1ccccc1)c1ccccc1)c(C)n2C(=O)c1ccc(Cl)cc1` [complex 1] had an IC50 of 4.47 ± 0.17 µM. Also, the LogP value in data set [1] is listed as 1.64 ± 0.42. Also, the apoptosis induction result in the data set with HMLER-shEcad cells is “induced large populations of cells to undergo late-stage apoptosis”. In addition, in the data set on COX-2, the COX-2 expression result is on record as “decreased”.
